Results from US20180008688A1, “METHOD AND COMPOSITIONS FOR ENHANCING IMMUNOTHERAPEUTIC TREATMENT OF A CANCER” (Augusta University Research Institute, Inc., priority 2016, published 2018).
“Also recorded” adds a separate entry of the source.

What was measured:
[1] = tested on: E.G7 tumors; test: E.G7/oxaliplatin model in LysMcre/p53-KO hosts with or without nutlin-3a; type: in vivo, mouse; conditions: mice lacking myeloid p53; FIG. 8D
Description: To test whether the relevant target of nutlin in tumors was specifically the p53 expression in myeloid dendritic cells, the E.G7/oxaliplatin model in LysMcre/p53-KO hosts was used. If mice lacked the relevant p53 in tumor-associated myeloid cells, then LysMcre/p53-KO mice should lose all anti-tumor effect of nutlin. For these studies, mice received congenically-marked OT-I cells to monitor whether T cells were still rescued by IL-12 in tumors.
Mice with a nuclear-localizing Cre-recombinase knock-in replacing one copy of the Lyz2 gene (Clausen et al., (1999) Transgenic Res. 8: 265-277) (strain 004781, Jax) were crossed as heterozygotes with homozygous p53^flox/flox mice (Marino et al., (2000) Genes Dev. 14: 994-1004) (strain 008462, Jax).
Tumor implantation was performed as described (Sharma et al., (2007) J. Clin. Invest. 117: 2570-2582). VO-OHpic was given at 10 mg/kg/day i.p., in 10% DMSO/PBS. Cyclophosphamide was given at 150 mg/kg i.p×1 dose; and oxaliplatin at 5 mg/kg i.p×1 dose. Nutlin-3a was administered daily at 10 mg/kg/day i.p. For checkpoint blockade, mice received anti-CTLA-4 plus a cocktail of antibodies against the PD-1 pathway. Vaccines and T cell adoptive transfer studies were performed as described (Sharma et al., (2015) Sci. Advances. 1: e1500845).

[2] = tested on: OT-I T cells; test: Autoimmune diabetes in RIP-mOVA mice after OT-I T cell transfer (no tumor); type: in vivo, mouse
Procedure: Accordingly and without wishing to be bound by any one hypothesis, it is likely that p53 can play two different immunologic roles, depending on the context (tumor versus normal tissues). […] Following T cell transfer, these mice progressively developed lethal autoimmune diabetes. However, if mice were treated with nutlin-3a diabetes formation was suppressed and the mice remained healthy.

## COc1ccc(C2=NC(c3ccc(Cl)cc3)C(c3ccc(Cl)cc3)N2C(=O)N2CCNC(=O)C2)c(OC(C)C)c1 (single isomer, unassigned; (-)) [nutlin-3a, (−)-4-(4,5-Bis(4-chlorophenyl)-2-(2-isopropoxy-4-methoxyphenyl)-4,5-dihydro-1H-imidazole-1-carbonyl)piperazin-2-one]
[1]
  anti-tumor effect of nutlin-3a: lost all anti-tumor effects; also recorded: lost all ability to enhance anti-tumor immunity
[2]; mouse, in vivo
  level of p53 in OT-I cells in pancreatic LNs: increased
[2]; nutlin-3a treatment after OT-I transfer
  diabetes formation: suppressed
[2]; pancreatic LNs
  expression of granzyme B in OT-I cells: decreasing
